Laboratory results reported in patent publication US8124793B2, “Derivatives of ethylene methanedisulfonate as cancer chemotherapeutic agents” (priority 2007, dated 2012).

What was measured:
Assay type in all cases: cell-based
SU-DAL-7 = experiment: NCI screen, growth of human tumor cells: Lymphoma SU-DAL-7; settings: SU-DAL-7, 10^−4 molar
KD488 = experiment: NCI screen, growth of human tumor cells: Lymphoma KD488
human cancer cells = experiment: NCI screen summary over the cancers tested (negative growth of human cancer cells); settings: 10^−4 M conc.; cancers with negative growth / cancers tested
Procedure: In the NCI screening process, each compound was tested and described by a minimum of 60 data points. The test data include, but are not limited to the type of cancer, the molar concentration used in the screen, and the percent growth of the cancer. In some cases, NMR and elemental analysis were used for structural assignment.
The derivatives in the tables are grouped using the same category as in the tables 1-6.

SF-295 = experiment: NCI screen, growth of human tumor cells: CNS Cancer SF-295
Outline: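 At least 60 data points describe each compound tested by NCI. Cancer type, molar concentration in the screen and percent growth make up the recorded data.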

O=C(c1cccc2ccccc12)C1S(=O)(=O)OCCOS1(=O)=O [NSC 679047, ethylene 1-naphthoylmethanedisulfonate]
% Growth (SU-DAL-7): 42%
% Growth (KD488; KD488, 10^−4 molar): 29%
% Growth (KD488; KD488, 10^−5 molar): 45%
% Growth (KD488; KD488, 10^−6 molar): 56%
% Growth (KD488; KD488, 10^−7 molar): 71%
% Growth (KD488; KD488, 10^−8 molar): 78%
Percentage of cancers showing negative growth cancers tested (human cancer cells): 10^−4 M conc. = 1/3 = 33%
% Growth (SF-295; SF-295, 10^−4 molar): −53%
% Growth (SF-295; SF-295, 10^−5 molar): −50%
% Growth (SF-295; SF-295, 10^−6 molar): −54%
% Growth (SF-295; SF-295, 10^−7 molar): −44%
% Growth (SF-295; SF-295, 10^−8 molar): 70%
